In publication PMC5667785 (International Journal of Nanomedicine, 2017):

How the values were obtained:
[1] = Cur stability in Krebs–Ringer intestinal circulation-perfusion solution; type: physicochemical; conditions: 2 hours at 37°C
liver microsomal enzymes = conditions: within 30 minutes ref 14; cited from earlier work
[2] = Critical micelle concentration by surface-tension measurements; type: physicochemical

| Cur stability in the KR solution [1] | Compound | Biotransformation of Cur to sulfate or glucuronide conjugates (liver microsomal enzymes) [%] | Critical micelle concentration [2] [µg/mL] |
| --- | --- | --- | --- |
| neither degraded | COc1cc(/C=C/C(=O)CC(=O)/C=C/c2ccc(O)c(OC)c2)ccc1O [Cur, Curcumin] | 90 |  |
|  | TCA-PEG100-monostearate [S100-TCA] |  | 15.86 ± 0.53 |
